Measurements as given in patent US20120108607A1, “OPTICALLY ACTIVE 3-[(PHENYLPIPERAZIN-1-YL)ALKYL]-3- ALKYL-OXINDOLE DERIVATIVES HAVING CNS ACTIVITY” (priority 2009, published 2012).
“And” between values parts separate entries of the source, which are not always exact repeats. Equal values may be shown once. “Also recorded” adds a separate entry of the source.

Legend:
[1] = target: T1, cloned human 5-HT6 receptors (Homo sapiens, UniProt P50406); experiment: receptor-binding assay, 5-HT6 (3H-LSD, HEK 293 cells); conditions: for Ki: 3H-LSD 2.7 nM, HEK 293 cells
T1 construct: expressed in transfected cells
T1 sequence (P50406 whole entry): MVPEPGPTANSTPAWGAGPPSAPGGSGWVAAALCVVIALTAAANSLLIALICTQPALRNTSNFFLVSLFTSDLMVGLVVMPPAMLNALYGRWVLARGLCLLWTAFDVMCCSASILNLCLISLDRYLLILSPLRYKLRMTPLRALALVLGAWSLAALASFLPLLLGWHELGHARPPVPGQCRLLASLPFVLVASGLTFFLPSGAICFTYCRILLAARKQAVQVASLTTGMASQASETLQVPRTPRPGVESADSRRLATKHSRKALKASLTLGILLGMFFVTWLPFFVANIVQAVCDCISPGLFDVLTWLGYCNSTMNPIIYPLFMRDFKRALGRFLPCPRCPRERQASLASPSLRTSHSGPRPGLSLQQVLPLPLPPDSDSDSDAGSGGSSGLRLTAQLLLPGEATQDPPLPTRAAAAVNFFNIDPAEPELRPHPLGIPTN
Description: (§1) In the receptor-binding assays, brain tissues from male Wistar rats weighing 120-200 g or cloned human 5-HT6 or D4 receptors were used. The protein contents of the membrane preparates were determined according to Lowry (Lowry O. H., Rosenbrough N. J., Farr A. L., Randall R. J., Protein measurement with the Folin-Phenol reagents. J Biol Chem, 193: 265-275 (1951).
(§2) The basic information with regard the receptor-binding assay is disclosed in Table 1. The binding assays were carried out according to the method of Leysen (Leysen J. E, Niemegeers C. J. E, Van Nueten J. M., Laduron P. M.: ^[3H]Ketanserin (R41468), a selective ^[3H]ligand for Serotonine2 receptor binding. Mol Pharmacol, 21: 301-314 (1981)). The tested compound was deemed to be effective in the case when the Ki value was smaller than 100 nM.

5-HT2A receptors = target: T2, 5-HT2A receptors (Rattus norvegicus, UniProt P14842); experiment: receptor-binding assay, 5-HT2A (3H-ketanserine, frontal cortex); conditions: for Ki: 3H-ketanserine 1.0 nM, frontal cortex
T2 construct: brain tissues from male Wistar rats weighing 120-200 g; from tissue
T2 sequence (P14842 whole entry): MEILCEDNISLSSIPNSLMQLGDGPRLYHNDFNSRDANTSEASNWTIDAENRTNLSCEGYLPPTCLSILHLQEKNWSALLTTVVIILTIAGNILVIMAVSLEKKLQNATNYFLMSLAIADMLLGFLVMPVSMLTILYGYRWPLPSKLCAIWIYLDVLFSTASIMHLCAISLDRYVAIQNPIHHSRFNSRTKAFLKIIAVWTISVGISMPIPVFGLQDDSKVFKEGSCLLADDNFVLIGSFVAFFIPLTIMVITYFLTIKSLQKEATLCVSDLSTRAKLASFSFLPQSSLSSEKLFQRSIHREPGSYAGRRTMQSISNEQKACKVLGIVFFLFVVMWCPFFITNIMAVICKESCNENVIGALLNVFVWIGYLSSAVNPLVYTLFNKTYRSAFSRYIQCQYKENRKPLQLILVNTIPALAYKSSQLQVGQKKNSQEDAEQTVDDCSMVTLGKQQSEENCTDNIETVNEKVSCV
Text: In the receptor-binding assays, brain tissues from male Wistar rats weighing 120-200 g or cloned human 5-HT6 or D4 receptors were used.
The basic information with regard the receptor-binding assay is disclosed in Table 1.

[2] = target: T3, cloned human D4 receptors (Homo sapiens, UniProt P21917); experiment: receptor-binding assay, D4 (3H-YM-09151-2, SF9 cells); conditions: for Ki: 3H-YM-09151-2 0.28 nM, SF9 cells
T3 construct: expressed in transfected cells
T3 sequence (P21917 1-419): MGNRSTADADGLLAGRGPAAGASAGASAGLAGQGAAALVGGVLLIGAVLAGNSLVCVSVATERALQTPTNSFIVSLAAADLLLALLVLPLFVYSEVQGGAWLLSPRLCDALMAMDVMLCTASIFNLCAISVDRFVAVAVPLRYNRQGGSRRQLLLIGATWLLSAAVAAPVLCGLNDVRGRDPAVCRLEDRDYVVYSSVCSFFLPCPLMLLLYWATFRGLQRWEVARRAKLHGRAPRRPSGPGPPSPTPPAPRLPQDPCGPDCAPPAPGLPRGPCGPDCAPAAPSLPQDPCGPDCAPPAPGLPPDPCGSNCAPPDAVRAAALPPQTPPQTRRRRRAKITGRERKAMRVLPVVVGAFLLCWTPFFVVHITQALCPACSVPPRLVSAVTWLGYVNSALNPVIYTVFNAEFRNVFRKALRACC
Description: as §1, §2

male Wistar rats = experiment: Vogel's drinking conflict model (anxiolytic effect); type: in vivo, rat; conditions: ip., 30 minutes before the test, MED = minimum dose resulting in statistically significant effect
Description: Vogel's drinking conflict model was used for establishing the anxiolytic effect (Vogel at el., Psychopharmacologia, 21, 1, 1971). Male Wistar rats weighing 200 to 220 grams were restrained from drinking for 48 hours and deprived from feed for 24 hours prior to the experiment. The test substances or the vehicle were administered to the animals in a dose of 5.0-10.0-20.0 mg/kg intraperitoneally 30 minutes before the test. The test chamber was provided with a drinking tube which allowed the animals to drink. However, after each twentieth licking, the apparatus delivered a 0.7 mA electric shock to the animal. During the five-minute measurement period, the number of electric shocks was registered which the animals tolerated to appease their thirst. The effect of the test substance was expressed in the percentage increase in the number of tolerated electric shocks. The minimum effective dose (MED) was determined for each compound.

male DBA mice = experiment: Porsolt's test (antidepressant effect); type: in vivo, mouse; conditions: for Porsolt-test (model for antidepressant effect), MED: ip., 30 minutes before the test, p<0.05
Description: The antidepressant effect of the compounds of the Formula (I) has been established in Porsolt's test in male DBA mice weighing 20 to 25 grams. The swimming experiment was carried out in cylinders of 17.7 cm height and 12 cm diameter (Porsolt, R. D.: Behavioral despair. In: Enna, S. J., Malick, J. B., and Richelson, E. (eds.): “Antidepressants: Neurochemical, Behavioral, and Clinical Prespectives.” New York: Raven Press, 1981. pp. 121-139). In each experiment, four cylinders were used simultaneously. The animals were treated 30 minutes before the test with the test substances or with the vehicle in the dose of 1-3-10 mg/kg i.p. Animals were allowed to stay in the cylinder for six minutes. In the first two minutes, no measurement was made since this period was considered as the adaptation period. In the following four minutes (minutes 3 to 6 of the experiment) the time spent in immobile state was determined. The immobile time was registered for each animal with a precision of one second. The average was calculated for each group and the percentage effect was calculated for each treated group with reference for the control group. The statistical significance of the differences between groups was analyzed by […].
On the basis of the statistical significance determined for the difference of each dose from the control, MED (minimum effective dose) values were calculated. […] A significant decrease of time spent in immobility was interpreted as an antidepressant effect.

male NMRI mice = experiment: permanent focal cerebral ischemia model (neuroprotective effect); type: in vivo, mouse; conditions: ip., 30 minutes after surgery
Description: The neuroprotective effect of the compounds of the Formula (I) was tested in the permanent focal cerebral ischemia model according to the modified method of Karkoutly and coworkers (Karkoutly, C., Backhauss, C., Nuglisch, J., Krieglstein, J.: The measurement of the infarcted area after middle cerebral artery occlusion in the mouse: a screening model. In Krieglstein, J., Oberpichler, H. ed. Pharmacology of Cerebral Ischemia 1990. Wissenschaftliche Verlagsgesellschaft mbH Stuttgart. 63-69 (1990).).
Male NMRI mice weighing 30 to 35 grams were anesthetized with 2,2,2-tribromoethanol administered intraperitoneally in the dose of 500 mg/kg (20 ml/kg). During anesthesia, surgery was performed according to the surgical protocol of Welsh and coworkers (Welsh, F. A., Sakamoto, T., McKee, A., Sims, R. E.: Effect of lactacidosis on pyridine nucleotide stability during ischemia in mouse. J. Neurochem. 49: 846-851 (1987)). The distal part of the middle […] artery (MCA) was occluded with electric cauter. Test compounds were administered intraperitoneally 30 minutes after surgery in the dose of 0.1-0.3-1.0-3.0-10.0 mg/kg). After 48 hours, mice were anesthetised by 120 mg/kg sodium pentobarbital intraperitoneally. The brains were perfused through the left ventricle with 2 ml of 4% 2,3,5-triphenyl-tetrazolium-chloride (TTC) solution. After one hour, the brains was removed and placed into ice-cool saline for one to two minutes. Subsequently the brains were placed into 8% aqueous formaldehyde solution. After 24 hours, the area of white lesions was determined by a computerized image analysis software. The statistical evaluation was performed by variance analysis followed by Duncan-test.

SMILES | affinity towards central 5-HT6 receptors (in words) [1] | Ki [1] | affinity to the central 5-HT2A receptors (in words) (5-HT2A receptors) | Ki (5-HT2A receptors) | affinity to the central D4 receptors (in words) [2] | Ki [2] | Vogel-test (model for anxiolytic effect), MED (male Wistar rats) | Porsolt-test (model for antidepressant effect), MED (male DBA mice) | antidepressant activity in Porsolt's test (in words) (male DBA mice; mice) | Permanent cerebral ischemia model (model for neuroprotective effect), MED (male NMRI mice) | melting point | Vogel-test (model for anxiolytic effect), MED (male Wistar rats; listed as (−)-5,7-dichloro-3-{4-[4-(4-chlorophenyl)-piperazin-1-yl]butyl}-3-ethyl-1,3-dihy)
CCC1(CCCCN2CCN(c3ccc(Cl)cc3)CC2)C(=O)Nc2c(Cl)cc(Cl)cc21 (racemic) [Compound of the Formula (II), 5,7-dichloro-3-{4-[4-(4-chlorophenyl)-piperazin-1-yl]butyl}-3-ethyl-1,3-dihydro-2H-indol-2-one] | significant affinity | 9 nM | affinity greater by several orders of magnitude | 50 nM | did not show any significant binding | > 100 nM | 5 mg/kg | 3 mg/kg | significant, dose-dependent antidepressant activity | 0.1 mg/kg | 152 to 154 °C | 
CCC1(CCCCN2CCN(c3ccc(Cl)cc3)CC2)C(=O)Nc2c(Cl)cc(Cl)cc21 (single isomer, unassigned; (+)) [(+)-enantiomer of the Formula (I), (+)-5,7-dichloro-3-{4-[4-(4-chlorophenyl)-piperazin-1-yl]butyl}-3-ethyl-1,3-dihydro-2H-indol-2-one] | significant affinity | 11 nM |  | > 200 nM |  | 35 nM | 10 mg/kg | No effect |  | ineffective; also recorded: No effect | 139 to 141 °C | 
CCC1(CCCCN2CCN(c3ccc(Cl)cc3)CC2)C(=O)Nc2c(Cl)cc(Cl)cc21 (single isomer, unassigned; (-)) [(−)-enantiomer of the Formula (I), (−)-5,7-dichloro-3-{4-[4-(4-chlorophenyl)-piperazin-1-yl]-butyl}-3-ethyl-1,3-dihydro-2H-indol-2-one] | not bound |  | affinity greater by several orders of magnitude | 42 nM | significant affinity | 13 nM | No effect | No effect |  | 3 mg/kg and 3.0 mg/kg | 139 to 140 °C | did not show any anxiolytic effect
